According to patent EP1175907A1, “REMEDIES” (Takara Shuzo Co, Ltd., priority 1999, dated 2000):

Legend:
Assay type in all cases: cell-based, human
NHDF cells [1] = test: HGF in medium and cells of NHDF cells with or without TPA; settings: 10 nM TPA alone
NHDF cells [2] = test: HGF mRNA in NHDF cells (RT-PCR); settings: 10 nM TPA, at any time periods (4 to 10 hours)
Method: NHDF cells (normal human dermal fibroblasts) cultured in a DMEM medium containing 10% fetal bovine serum were suspended in the DMEM medium containing 10% fetal bovine serum so as to have a concentration of 2.5 × 10^5 cells/ml, and added into each well of a 6-well cell culture plate in a volume of 2 ml each. The cells were cultured at 37°C for 24 hours in the presence of 5% CO2. Thereafter, the medium was exchanged for a DMEM medium containing 1% fetal bovine serum, and thereto were added 10 nM tetradecanoylphorbol 13-acetate (TPA: manufactured by Gibco BRL) and 7-12SFd-F prepared in item (3) of Reference Example 2 each so as to have a final concentration of 100 µg/ml. Also, the same steps were carried out for the group added with only 7-12SFd-F without adding TPA. The cells were further cultured, and a whole RNA was extracted on Hours 4, 6, 8 and 10. In the extraction of the whole RNA, RNeasy Mini Kit (QIAGEN) was used. RT-PCR was carried out entirely in the same manner as that in Example 14, except for changing the cycles for PCR to 28 cycles. After the reaction, the reaction mixture was subjected to electrophoresis on a 2% agarose gel and ethidium bromide staining, and the gel was observed under UV irradiation.

HL60 cells [3] = test: HGF mRNA in HL60 cells (RT-PCR); settings: 10 nM TPA, at any time periods (4 to 10 hours)
Method: HL60 cells (human promyelocytic leukemia cell line) cultured in an RPMI 1640 medium containing 10% fetal bovine serum were suspended in an RPMI 1640 medium containing 1% fetal bovine serum so as to have a concentration of 5 × 10^5 cells/ml, and added into each well of a 6-well cell culture plate in a volume of 2 ml each. Thereafter, 10 nM TPA and 7-12SFd-F prepared in item (3) of Reference Example 2 were added each so as to have a final concentration of 100 µg/ml. Also, the same steps were carried out for the group added with only 7-12SFd-F without adding TPA. The cells were further cultured, and a whole RNA was extracted on Hours 4, 6, 8, and 10. In the extraction of the whole RNA, RNeasy Mini Kit (manufactured by QIAGEN) was used. RT-PCR was carried out entirely in the same manner as that in Example 14, except for changing the cycles for PCR to 32 cycles. After the reaction, the reaction mixture was subjected to electrophoresis on a 2% agarose gel and ethidium bromide staining, and the gel was observed under UV irradiation.

HL60 cells [4] = test: HGF in medium and cells of HL60 cells with or without TPA; settings: 10 nM TPA alone, 24 h
Method: HL60 cells (human promyelocytic leukemia cell line) cultured in an RPMI 1640 medium containing 10% fetal bovine serum were suspended in an RPMI 1640 medium containing 1% fetal bovine serum so as to have a concentration of 5 × 10^5 cells/ml, and added into each well of a 48-well cell culture plate in a volume of 500 µl each. There after, 10 nM TPA was added thereto, and each sample was further added, and the cells were then cultured for 24 hours. Also, the same steps were carried out for the group added with only the sample without adding TPA. The medium was collected, and the amount of HGF in the medium was determined by using the Quantikine Human Hepatocyte Growth Factor (HGF) ELISA Kit. Further, the cells were washed with PBS, and thereafter dissolved in 500 µl of a cytolytic buffer (50 mM HEPES, pH 7.4; 10 mM EDTA; 0.1% Triton X100; 1 mM PMSF; 1 µg/ml pepstatin A and 1 µg/ml leupeptin). Further, in order to completely dissolve the cells, the mixture was subjected to sonication treatment, and then centrifuged, to give a supernatant (cell extract). The amount of HGF in the cells was determined in the same manner as that of the concentration of HGF in the medium. 7-12SFd-F prepared in item (3) of Reference Example 2 was added so as to have a final concentration of 1, 10 or 100 µg/ml. As a negative control, distilled water was added in the same volume as that of the sample. Each experiment was carried out three times, and an average value was taken.

Hs68 cells = test: HGF in medium and cells of Hs68 cells with or without TPA; settings: 10 nM TPA alone
Method: Hs68 cells (human newborn foreskin fibroblasts: manufactured by DAINIPPON PHARMACEUTICAL CO., LTD., ATCC CRL-1635) cultured in a DMEM medium containing 10% fetal bovine serum were suspended in the DMEM medium containing 10% fetal bovine serum so as to have a concentration of 1 × 10^5 cells/ml, and added into each well of a 48-well cell culture plate in a volume of 500 µl each. The cells were cultured for 24 hours. Thereafter, the medium was exchanged for a DMEM medium containing 1% fetal bovine serum, and thereto were added 10 nM TPA and each sample. Also, the same steps were carried out for the group added with only the sample without adding TPA. The medium was collected, and the amount of HGF in the medium was determined by using Quantikine Human Hepatocyte Growth Factor (HGF) ELISA Kit. Further, the cells were washed with PBS, and thereafter dissolved in 500 µl of a cytolytic buffer (50 mM HEPES, pH 7.4; 10 mM EDTA; 0.1% Triton X100; 1 mM PMSF; 1 µg/ml pepstatin A and 1 µg/ml leupeptin). Further, in order to completely dissolve the cells, the mixture was subjected to sonication treatment, and then centrifuged, to give a supernatant (cell extract). The amount of HGF in the cell was determined in the same manner as that of the concentration of HGF in the medium. 7-12SFd-F prepared in item (3) of Reference Example 2 was added so as to have a final concentration of 0.1, 1, 10 or 100 µg/ml. As a negative control, distilled water was added in the same volume as that of the sample. Each experiment was carried out three times, and an average value was taken. In the TPA non-added group, a remarkable production of HGF could not be found. […] In addition, the increase in the amount of HGF when mRNA is increased as described above was very remarkable, as compared to the case where the amount of mRNA is small with no TPA treatment. It was clarified from the above that 7-12SFd-F remarkably promotes the freeing and production of HGF in a case where transcription of mRNA is promoted, so that a large amount of HGF is required.

## CCCCCCCCCCCCCC(=O)O[C@@H]1[C@@H](C)[C@@]2(O)[C@@H](C=C(CO)C[C@]3(O)C(=O)C(C)=C[C@@H]23)[C@@H]2C(C)(C)[C@]12OC(C)=O [TPA, 12-O-tetradecanoylphorbol 13-acetate]
NHDF cells [1]
  Amount of HGF in Cells: 0.24 ng/Well
  Amount of HGF in Medium: 0.39 ng/Well
  Total Amount of HGF: 0.63 ng/Well
NHDF cells [2]
  amount of HGF mRNA: remarkably increased
HL60 cells [3]
  amount of HGF mRNA: remarkably increased
HL60 cells [4]
  Amount of HGF in Cells: 83.37 pg/Well
  Amount of HGF in Medium: 261.60 pg/Well
  Total Amount of HGF: 344.97 pg/Well
Hs68 cells
  Amount of HGF in Cells: 155.65 pg/Well
  Amount of HGF in Medium: 65.54 pg/Well
  Total Amount of HGF: 221.19 pg/Well
